Data taken from ChEMBL document CHEMBL5120891, “Beyond Proteolysis-Targeting Chimeric Molecules: Designing Heterobifunctional Molecules Based on Functional Effectors” (J Med Chem, 2022).

Target: T1, Macrophage migration inhibitory factor (Homo sapiens) (UniProt P14174)
T1 sequence (whole entry): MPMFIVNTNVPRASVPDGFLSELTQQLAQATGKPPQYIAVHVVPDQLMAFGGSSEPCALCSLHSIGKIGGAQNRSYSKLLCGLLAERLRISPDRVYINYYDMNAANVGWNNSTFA
Test: LYTAC activity at ASGPR/MIF (unknown origin) by cell based assay

## CC(=O)N[C@H]1[C@H](OCCOCCOCCNC(=O)CCOCC(COCCC(=O)NCCOCCOCCO[C@@H]2O[C@H](CO)[C@H](O)[C@H](O)[C@H]2NC(C)=O)(COCCC(=O)NCCOCCOCCO[C@@H]2O[C@H](CO)[C@H](O)[C@H](O)[C@H]2NC(C)=O)NC(=O)CNC(=O)CCCOc2ccc3nc(-c4cn(-c5ccc(O)c(F)c5)nn4)ccc3c2)O[C@H](CO)[C@H](O)[C@@H]1O
  Activity: > 1 µM
